Drawing on patent publication US10633353B2, “Polymerizable compound, composition, polymer, optically anisotropic body, liquid crystal display element, and organic EL display” (DIC Corporation, priority 2014, dated 2020), this text covers Preservation stability for 24 molecules.

A short description of the first data set: Preservation stability of the coating liquid. In kind it is physicochemical. Particulars: coating liquid stored for 2 months shielded from light at 0° C.; appearance and GPC. How it is done:
The preservation stability of the coating liquid was evaluated on a scale of A to E on the basis of the state of the coating liquid that was stored for 2 months under a condition where the coating liquid was shielded from light at 0° C.
A: No visual change in the appearance of the coating liquid was confirmed. A GPC analysis of the coating liquid confirmed that the change in the composition of the coating liquid was 1% or less.
B: No visual change in the appearance of the coating liquid was confirmed. A GPC analysis of the coating liquid confirmed that the change in the composition of the coating liquid was 2% or less.
C: A visual change in the appearance of the coating liquid was confirmed; a trace amount of insoluble components were confirmed, or a GPC analysis of the coating liquid confirmed that the change in the composition of the coating liquid was 3% or less.
D: A visual change in the appearance of the coating liquid was confirmed; insoluble components were confirmed. The ratio of the weight of the insoluble components to the total solid content was 5% or less.
E: A large amount of insoluble components were visually confirmed. The ratio of the weight of the insoluble components to the total solid content was 5% or more.
Regarding `C=CC(=O)OCCCCCCOc1ccc(C(=O)Oc2ccc(-c3ccc(OC(=O)c4ccc(OCCCCCCOC(=O)C=C)cc4)cc3/C=N/Nc3nc4ccccc4s3)cc2)cc1` [1-hk-85], the Preservation stability result was “A (No visual change in the appearance of the coating liquid was confirmed. A GPC analysis of the coating liquid confirmed that the change in the composition of the coating liquid was 1% or less.)”. Take `C=CC(=O)OCCCCCCOc1ccc(OC(=O)c2ccc(OC(=O)c3ccc4cc(OCCCCCCOC(=O)C=C)ccc4c3)cc2)c(/C=N/Nc2nc3ccccc3s2)c1` [1-eh-75]: the Preservation stability entry was “A (No visual change in the appearance of the coating liquid was confirmed. A GPC analysis of the coating liquid confirmed that the change in the composition of the coating liquid was 1% or less.)”. In the case of `C=CC(=O)OCCCOc1ccc(C(=O)Oc2ccc3cc(C(=O)Oc4ccc(OCCCOC(=O)C=C)cc4/C=N/Nc4nc5ccccc5s4)ccc3c2)cc1` [1-eh-74], the Preservation stability entry is reported as “A (No visual change in the appearance of the coating liquid was confirmed. A GPC analysis of the coating liquid confirmed that the change in the composition of the coating liquid was 1% or less.)”. Regarding `C=CC(=O)OCCCCCCOc1ccc(C(=O)Oc2ccc(OCCCCCCOC(=O)C=C)cc2/C=N/Nc2nc3ccccc3s2)cc1` [1-e-70], the Preservation stability entry is “A (No visual change in the appearance of the coating liquid was confirmed. A GPC analysis of the coating liquid confirmed that the change in the composition of the coating liquid was 1% or less.)”. Regarding `C=CC(=O)OCCCCCCOc1ccc(OC(=O)C2CCC(COc3ccc(OCC4CCC(C(=O)Oc5ccc(OCCCCCCOC(=O)C=C)cc5)CC4)c(/C=N/N(CCOC(=O)C=C)c4nc5ccccc5s4)c3)CC2)cc1` (stereo not shown) [1-cmn-93], the Preservation stability result is reported as “A (No visual change in the appearance of the coating liquid was confirmed. A GPC analysis of the coating liquid confirmed that the change in the composition of the coating liquid was 1% or less.)”.

As to `C=CC(=O)OCCCOc1ccc(C#Cc2ccc(C#Cc3ccc(OCCCOC(=O)C=C)cc3)c(/C=N/Nc3nc4ccccc4s3)c2)cc1` [1-c-67], the Preservation stability entry is reported as “B (No visual change in the appearance of the coating liquid was confirmed. A GPC analysis of the coating liquid confirmed that the change in the composition of the coating liquid was 2% or less.)”. Consider `C=C(C)C(=O)OCCCOc1ccc(/C=C/C(=O)Oc2ccc(OC(=O)/C=C/c3ccc(OCCCOC(=O)C(=C)C)cc3)c(/C=N/Nc3nc4ccccc4s3)c2)cc1` [1-c-48], for which the Preservation stability result was “B (No visual change in the appearance of the coating liquid was confirmed. A GPC analysis of the coating liquid confirmed that the change in the composition of the coating liquid was 2% or less.)”. The same measure, in the same setting: to `C=CC(=O)OCCCCOC(=O)C1CCC(C(=O)OC2CCC(C(=O)Oc3ccc(OC(=O)C4CCC(OC(=O)C5CCC(C(=O)OCCCCOC(=O)C=C)CC5)CC4)c(/C=N/N(C)c4nc5ccccc5s4)c3)CC2)CC1` (stereo not shown) [1-f-103] belongs “A (No visual change in the appearance of the coating liquid was confirmed. A GPC analysis of the coating liquid confirmed that the change in the composition of the coating liquid was 1% or less.)”; to `C=CC(=O)OCCCCOc1ccc(CCC(=O)Oc2ccc(OC(=O)CCc3ccc(OCCCCOC(=O)C=C)cc3)c(/C=N/Nc3nc4ccccc4s3)c2)cc1` [1-c-50], “A (No visual change in the appearance of the coating liquid was confirmed. A GPC analysis of the coating liquid confirmed that the change in the composition of the coating liquid was 1% or less.)”.

On to `C=C(C)C(=O)OCCCCCOc1ccc(C(=O)OCCc2ccc(OC(=O)c3ccc(OCCCCCOC(=O)C(=C)C)cc3)c(/C=N/Nc3nc4ccccc4s3)c2)cc1` [1-c-7], for which the Preservation stability result is recorded as “A (No visual change in the appearance of the coating liquid was confirmed. A GPC analysis of the coating liquid confirmed that the change in the composition of the coating liquid was 1% or less.)”. Same read-out and setting: to `C=CC(=O)OCCCCCOc1ccc(OC(=O)C2CCC(C(=O)OCCc3ccc(OC(=O)C4CCC(C(=O)Oc5ccc(OCCCCCOC(=O)C=C)cc5)CC4)c(C=NNc4nc5ccccc5s4)c3)CC2)cc1` (stereo not shown) [1-c-15] belongs “A (No visual change in the appearance of the coating liquid was confirmed. A GPC analysis of the coating liquid confirmed that the change in the composition of the coating liquid was 1% or less.)”; to `C=CC(=O)OCCCCCOc1ccc(C(=O)OCCc2ccc(CCOC(=O)c3ccc(OCCCCCOC(=O)C=C)cc3)c(/C=N/Nc3nc4ccccc4s3)c2)cc1` [1-c-11], “A (No visual change in the appearance of the coating liquid was confirmed. A GPC analysis of the coating liquid confirmed that the change in the composition of the coating liquid was 1% or less.)”. Turning to `C=CC(=O)OCCCCCCOc1ccc(OC(=O)C2CCC(COc3ccc(OCC4CCC(C(=O)Oc5ccc(OCCCCCCOC(=O)C=C)cc5)CC4)c(/C=N/Nc4nc5ccccc5s4)c3)CC2)cc1` (stereo not shown) [1-cm-88], the Preservation stability entry is recorded as “A (No visual change in the appearance of the coating liquid was confirmed. A GPC analysis of the coating liquid confirmed that the change in the composition of the coating liquid was 1% or less.)”. Regarding `C=CC(=O)OCCCCCCOc1ccc(OC(=O)C2CCC(COc3ccc(OCC4CCC(C(=O)Oc5ccc(OCCCCCCOC(=O)C=C)cc5)CC4)c(/C=N/N(CCOCCOCCOC(=O)C=C)c4nc5ccccc5s4)c3)CC2)cc1` (stereo not shown) [1-cmn-94], the Preservation stability result was “A (No visual change in the appearance of the coating liquid was confirmed. A GPC analysis of the coating liquid confirmed that the change in the composition of the coating liquid was 1% or less.)”. On the same count and under the same terms, to `C=CC(=O)OCCCCCCOc1ccc(CCC(=O)Oc2ccc(OC(=O)CCc3ccc(OCCCCCCOC(=O)C=C)cc3)c(/C=N/Nc3nc4ccccc4s3)c2)cc1` [1-c-51] belongs “A (No visual change in the appearance of the coating liquid was confirmed. A GPC analysis of the coating liquid confirmed that the change in the composition of the coating liquid was 1% or less.)”; to `C=CC(=O)OCCCCCCOc1ccc(/C=C/C(=O)Oc2ccc(OC(=O)/C=C/c3ccc(OCCCCCCOC(=O)C=C)cc3)c(/C=N/Nc3nc4ccccc4s3)c2)cc1` [1-c-43], “B (No visual change in the appearance of the coating liquid was confirmed. A GPC analysis of the coating liquid confirmed that the change in the composition of the coating liquid was 2% or less.)”; to `C=CC(=O)OCCCOc1ccc(/C=C/C(=O)Oc2ccc(OC(=O)/C=C/c3ccc(OCCCOC(=O)C=C)c(OC)c3)c(/C=N/Nc3nc4ccccc4s3)c2)cc1OC` [1-c-46], “B (No visual change in the appearance of the coating liquid was confirmed. A GPC analysis of the coating liquid confirmed that the change in the composition of the coating liquid was 2% or less.)”. On to `C=CC(=O)OCCCCOc1ccc(C(=O)OCCc2ccc(CCOC(=O)c3ccc(OCCCCOC(=O)C=C)cc3)c(/C=N/Nc3nc4ccccc4s3)c2)cc1` [1-c-10], for which the Preservation stability result is “A (No visual change in the appearance of the coating liquid was confirmed. A GPC analysis of the coating liquid confirmed that the change in the composition of the coating liquid was 1% or less.)”.

Take `C=CC(=O)OCCCCOC(=O)C1CCC(C(=O)OC2CCC(C(=O)Oc3ccc(OC(=O)C4CCC(OC(=O)C5CCC(C(=O)OCCCCOC(=O)C=C)CC5)CC4)c(/C=N/N(CCCC)c4nc5ccccc5s4)c3)CC2)CC1` (stereo not shown) [1-f-99]: the Preservation stability result is given as “A (No visual change in the appearance of the coating liquid was confirmed. A GPC analysis of the coating liquid confirmed that the change in the composition of the coating liquid was 1% or less.)”. On the same count and under the same terms, to `C=CC(=O)OCCCCCCOc1ccc(OC(=O)C2CCC(C(=O)Oc3ccc(OC(=O)C4CCC(C(=O)Oc5ccc(OCCCCCCOC(=O)C=C)cc5)CC4)c4c3SC(=C(C#N)C#N)S4)CC2)cc1` (stereo not shown) [r-2, reference compound] belongs “C (A visual change in the appearance of the coating liquid was confirmed; a trace amount of insoluble components were confirmed, or a GPC analysis of the coating liquid confirmed that the change in the composition of the coating liquid was 3% or less.)”. For `C=CC(=O)OCCCCCCOC(=O)/C=C/c1ccc(CCC(=O)Oc2ccc(OC(=O)CCc3ccc(/C=C/C(=O)OCCCCCCOC(=O)C=C)cc3)c(/C=N/Nc3nc4ccccc4s3)c2)cc1` [1-cj-60], the Preservation stability result was “A (No visual change in the appearance of the coating liquid was confirmed. A GPC analysis of the coating liquid confirmed that the change in the composition of the coating liquid was 1% or less.)”. With `C=C(C)C(=O)OCCCCCCOc1ccc(C(=O)OCCc2ccc(OC(=O)c3ccc(OCCCCCCOC(=O)C(=C)C)cc3)c(/C=N/Nc3nc4ccccc4s3)c2)cc1` [1-c-8], the Preservation stability result is listed as “A (No visual change in the appearance of the coating liquid was confirmed. A GPC analysis of the coating liquid confirmed that the change in the composition of the coating liquid was 1% or less.)”. Consider `C=CC(=O)OCCCCOC(=O)/C=C/c1ccc(C(=O)Oc2ccc(OC(=O)c3ccc(/C=C/C(=O)OCCCCOC(=O)C=C)cc3)c(/C=N/N(c3ccccc3)c3ccccc3)c2)cc1` [1-j-64], for which the Preservation stability result is on record as “B (No visual change in the appearance of the coating liquid was confirmed. A GPC analysis of the coating liquid confirmed that the change in the composition of the coating liquid was 2% or less.)”. With `C=CC(=O)Oc1ccc(C(=O)OCCc2ccc(OC(=O)c3ccc(OC(=O)C=C)cc3)c(/C=N/Nc3nc4ccccc4s3)c2)cc1` [1-cg-36], the Preservation stability result is given as “B (No visual change in the appearance of the coating liquid was confirmed. A GPC analysis of the coating liquid confirmed that the change in the composition of the coating liquid was 2% or less.)”.

Still in this data set, the particulars now being: summary in words.
`C=CC(=O)OCCCCCCOc1ccc(C(=O)Oc2ccc(-c3ccc(OC(=O)c4ccc(OCCCCCCOC(=O)C=C)cc4)cc3/C=N/Nc3nc4ccccc4s3)cc2)cc1` [1-hk-85]: the Preservation stability result is “high”.
